Type in all cases: in vivo
The nature of assay [1]: Epididymal adipose tissue weight of HFD mice after 12 weeks of diet and treatment. Conditions: after 12 weeks of HFD and OAS 200 mg/kg/d, ****p<0.0001. The method, then: Male C57BL/6JRj mice aged 7 weeks from Janvier Labs were fed a high fat diet (HFD, 45% fat and 20% sucrose) for 12 weeks. […] A first group of 10 mice fed this diet was treated with a daily dose of OAS of 200 mg/kg/d, at a frequency of 5 days per week during the 12 weeks of diet. The OAS used was the product sold as A6262_SIGMA by Sigma-Aldrich (CAS No. 66638-22-0). This group is the HFD+OAS group. […] This is the HFD group. […] These features are indicative of an establishment of obesity in the mice (FIG. 1).

For assay [2], the system named is C57BL/6JRj mice. Put plainly: Oral glucose tolerance test (OGTT) in healthy mice, single dose of OAS with the glucose load. As to conditions: single dose OAS 1000 mg/kg along with glucose 2.5 g/kg oral; vs control group. The method, then:
Male C57BL/6JRj mice aged 7 weeks from Janvier Labs were fed with a conventional diet used in pet shops. A first group of 5 mice, not treated with OAS, served as a control group. A second group of 5 mice was treated with a single dose of OAS at 1000 mg/kg. The OAS used was the product sold under the name A6262 SIGMA by the company Sigma-Aldrich (CAS No. 66638-22-0). This group is the OAS treatment group. An oral glucose tolerance test (OGTT) was performed on each of the two groups of mice. This test consists of monitoring the plasma glucose concentrations for 120 min, after the mice have received an oral glucose load. Thus, at T0 (fasting blood glucose level), glucose (2.5 g/kg) is given orally to the animal. […] In the OGTT test, the OAS treatment group received a dose of 1000 mg/kg of OAS along with the oral glucose load. The control group received only the oral glucose load.

Assay [3] relates to C57BL/6JRj mice fed a high fat diet. Put plainly: Oral glucose tolerance test (OGTT) in mice on high fat diet (HFD) treated with OAS. The method, then: Male C57BL/6JRj mice aged 7 weeks from Janvier Labs were fed a high fat diet (HFD, 45% fat and 20% sucrose) for 12 weeks. […] A first group of 10 mice fed this diet was treated with a daily dose of OAS of 200 mg/kg/d, at a frequency of 5 days per week during the 12 weeks of diet. The OAS used was the product sold as A6262_SIGMA by Sigma-Aldrich (CAS No. 66638-22-0). This group is the HFD+OAS group. […] This is the HFD group. […] An oral glucose tolerance test (OGTT) was performed on each of the three groups of mice. This test consists of monitoring the plasma glucose concentrations for 120 min, after the mice have received an oral glucose load. Thus, at T0 (fasting blood glucose), glucose (2 g/kg) is given orally to the animal. A drop of blood is taken from the tail every 30 minutes for 120 minutes so as to measure the blood glucose level with a strip glucose meter (Accu-Check Perfoma, available in pharmacies). Glucose tolerance is a reflection of the body's ability to regulate the return to a normal blood glucose level after a glucose load. The OGTT was performed at 5 weeks and 9 weeks after the start of the obesogenic diet. The results of this test show the installation of glucose intolerance as early as 5 weeks in the groups of mice on the HFD diet.

Assay [4] deals with C57BL/6JRj mice. Description: Oral glucose tolerance test (OGTT) in healthy mice after 5-day OAS treatment. As to conditions: OAS 1000 mg/kg daily for 5 days, vs control group; for area under the curve of the OGTT: glucose 2.5 g/kg oral. The method, then: Male C57BL/6JRj mice aged 7 weeks from Janvier Labs were fed with a conventional diet used in pet shops. A first group of 10 mice, not treated with OAS, served as a control group. A second group of 10 mice was treated with a daily dose of OAS at 1000 mg/kg for 5 days. The OAS used was the product sold under the name A6262_SIGMA by the company Sigma-Aldrich (CAS No. 66638-22-0). This group is the OAS treatment group. An oral glucose tolerance test (OGTT) was performed on each of the two groups of mice. This test consists of monitoring the plasma glucose concentrations for 120 min, after the mice have received an oral glucose load. Thus, at T0 (fasting blood glucose level), glucose (2.5 g/kg) is given orally to the animal. A drop of blood is taken from the tail every 15 to 30 minutes for 90 minutes to measure the blood glucose level with a strip glucose meter (Accu-Check Perfoma, available in pharmacies). The OGTT was performed on the fifth day of treatment 2 h after the OAS treatment group received a dose of 500 mg/kg. At the time of the OGTT, the mice of the treatment group also received 500 mg/kg of OAS along with the oral glucose load. The control group received only the oral glucose load.

This note sets out measurements from patent US20240024274A1, “O-ACETYLSERINE FOR THE USE THEREOF IN THE PREVENTION AND TREATMENT OF GLUCOSE INTOLERANCE AND THE ASSOCIATED DISEASES” (INSTITUT NATIONAL DE RECHERCHE POUR L'AGRICULTURE, …, priority 2020, published 2024).

Molecules are shown by their SMILES. Entries after “also recorded” stand apart in the source; their conditions may differ.

Regarding `CC(=O)OC[C@H](N)C(=O)O` [OAS, O-acetylserine], the “difference in epididymal adipose tissue weight between control group and HFD+OAS group” value in assay [1] is given as “statistically significant”. The “area under the curve of the OGTT” value in the assay on C57BL/6JRj mice [2] is reported as “lower area under the curve than the control group; also recorded: significant”; in the assay with C57BL/6JRj mice [4], “significant”; with C57BL/6JRj mice [4] (listed as O-acetylserine), “lower than that of the control group”. Also, in the assay with C57BL/6JRj mice [2], the “blood glucose levels at 15 min after the oral glucose load” value is reported as “significantly lower; also recorded: significantly decreases”. For the same molecule, the “effect on glucose intolerance (OGTT)” value in assay [3] (HFD mice, OAS 200 mg/kg/d 5 days per week, after 5 weeks) is listed as “no visible effect”. The “glucose intolerance (OGTT)” value in assay [3] (HFD mice, OAS 200 mg/kg/d 5 days per week, after 9 weeks) is on record as “significantly decreases”. In addition, the “difference in area under the curve of the OGTT between control group and HFD+OAS group” value in assay [3] (after 5 weeks, ****p<0.0001) is on record as “significant”. Further, the “difference in area under the curve of the OGTT between HFD group and HFD+OAS group” value in assay [3] (after 9 weeks, *p<0.05) is reported as “significant”. Moreover, in assay [3] (after 9 weeks, from t=60 min after oral glucose load), the “difference in plasma glucose concentration between control group and HFD+OAS group” value was “no longer significant”. In assay [3] (after 9 weeks, t=30 min after oral glucose load, p<0.0001), the “difference in plasma glucose concentration between HFD group and HFD+OAS group” value is recorded as “significant”. The “fasting blood glucose level” value with C57BL/6JRj mice [4] (conventional diet) is on record as “tended to be lower; also recorded: decreases”. Besides, the “blood glucose levels after the oral glucose load (hyperglycemia induced by an oral glucose load)” value in the assay with C57BL/6JRj mice [4] (15 min, 30 min and 60 min after glucose 2.5 g/kg oral) was “significantly lower; also recorded: significantly decreases; also recorded: significant”.
